Assay results taken from PMC11234460, “In Silico Discovery of Stapled Peptide Inhibitor Targeting the Nur77‐PPARγ Interaction and Its Anti‐Breast‐Cancer Efficacy” (Advanced Science, 2024).
Where a SMILES comes first, the peptide text is derived from it. Bridges are numbered along the chain shown (N, C = ends). [ ]: non-standard residue; d: D form. S5 = C=CCCC[C@](C)(N)C(=O)O

Tests used:
MDA-MB-231 cells = experiment: Western blot of Nur77, CD36 and FABP4; assay type: cell-based
Procedure: MCF7 and MDA‐MB‐231 cells were treated with various concentrations of peptide. The cells were then collected and lysed in NP40 lysis buffer. Total protein was quantified using a BCA assay kit (Beyotime, P0010S). The proteins were separated by SDS‐PAGE and transferred onto a PVDF membrane. The PVDF membrane was blocked in TBST containing 5% non‐fat milk, and then incubated with primary antibodies overnight at 4 °C. Subsequently, membranes were incubated with horseradish peroxidase‐conjugated antirabbit or antimouse IgG secondary antibody for 1 h at room temperature. The membranes were analyzed by a Tanon‐5200 Multi Gel Imaging Analysis System (Tanon) and quantified by ImageJ software.

[1] = system: mutated Nur77-EGFP (Gln571, Glu398, Phe598); experiment: MST with mutated Nur77-EGFP in HEK293T cell lysate; assay type: binding; conditions: Nur77 mutated at Gln571, Glu398 and Phe598, Monolith NT.115, 40% MST power
Procedure: The MST measure for the affinity of the peptide with purified Nur77 LBD protein was performed by Dianthus (Nano Temper). First, 1 × 10^−5 M protein was labeled with fluorescent dye and incubated with variable concentrations (0.1/0.4/0.8/1.6/3.1/6.3/12.5/25/50/100 × 10^−6 M) of peptides in PBST (containing 0.05% Tween‐20) (v/v, 10 µL: 10 µL). Incubated at room temperature away from light for 20 min, the mixture was loaded into the capillary and scanned. The MST measure for the affinity of the peptide with mutated Nur77‐EGFP was performed by Monolith NT.115 (Nano Temper). The HEK293T cell lysate was collected after transfection with the mutated Nur77‐EGFP plasmid for 48 h. The level of mutated Nur77‐EGFP was verified by the detection of fluorescence intensity. Different concentrations (0.1/0.4/0.8/1.6/3.1/6.3/12.5/25/50/100 × 10^−6 M) of ST‐CY14 were mixed with the cell lysate (v/v, 5 µL:5 µL) and incubated for 20 min. The measurement was carried out at 40% MST power.

MDA-MB-231-GFP xenograft = experiment: MDA-MB-231-GFP orthotopic xenograft tumor model; assay type: in vivo, mouse
Source text: Female BALB/c mice (4–5 weeks old, 16–18 g) and BALB/c mice (7–8 weeks old, 18–20 g) were provided by Shanghai Slake Experimental Animal Co., Ltd., and housed under specific pathogen‐free conditions for use in orthotopic xenograft tumor model experiments and bone metastasis tumor model experiments. The animal experiment was approved by the ethical committee of Shanghai University of Traditional Chinese Medicine (approval number: PZSHUTCM220627036).
To establish the bone metastasis tumor model, 1×10^5 cells were injected into the left ventricle of each mouse (7–8 weeks old), and surgery was monitored using a cardiac ultrasound instrument. The mice were randomly divided into three groups and treated with PBS (control group, n = 6), 5 mg kg^−1 ST‐CY14 (n = 6), and 10 mg kg^−1 ST‐CY14 (n = 6) Tumor cell metastasis was monitored using an in vivo imaging instrument (IVIS Spectrum, PerkinElmer, USA). by intraperitoneal injection of 20 mg kg^−1 D‐luciferin. The mice were treated with ST‐CY14 via intravenous injection using a 100 µL PBS solution every 2 days starting on the designated day after tumor cell injection. Bone tissue with MDA‐BoM‐1833 cell metastasis was obtained and stained for TRAP. The mice sera were collected and analyzed for BSP and β‐CTx levels using ELISA (Lengton, BPE10823, BPE10438). For the orthotopic xenograft tumor model, 3×10^6 cells were injected into the fourth pair of breast pads on the left side of the mouse (4–5 weeks old). The mice were treated with ST‐CY14 every two days once the tumor volume reached 30–50 mm^3, with the same groups as in the bone metastasis tumor model. The tumors were collected and stained for H&E, Ki‐67, and TUNEL assays, which were conducted by Wuhan Servicebio Technology Co., Ltd. Major organs (heart, liver, spleen, lung, and kidney) were also collected for H&E analysis by Wuhan Servicebio Technology Co., Ltd. The Transcriptome and LC/MS targeted lipid metabolome were sequenced by OE Biotech, Inc., Shanghai, China. […]

C[C@@H](O)[C@@H]1NC(=O)[C@H](CCCNC(=N)N)NC(=O)[C@H](CCCNC(=N)N)NC(=O)[C@@](C)(NC(=O)[C@H](Cc2ccccc2)NC(=O)CNC(=O)[C@H](CCCCN)NC(=O)[C@H](CS)NC(=O)CNC(=O)[C@H](CCC(=O)O)NC(=O)[C@@H](N)CS)CCCC=CCCC[C@@](C)(C(=O)N[C@@H](CCCNC(=N)N)C(=O)N[C@@H](Cc2ccc(O)cc2)C(=O)N[C@@H](Cc2ccc(O)cc2)C(=O)NCC(=O)N[C@@H](CCCNC(=N)N)C(=O)N[C@@H](CCCCN)C(=O)N[C@@H](CCCCN)C(=O)N[C@@H](CCCNC(=N)N)C(=O)N[C@@H](CCCNC(=N)N)C(=O)N[C@@H](CCC(N)=O)C(=O)N[C@@H](CCCNC(=N)N)C(=O)N[C@@H](CCCNC(=N)N)C(=O)N[C@@H](CCCNC(=N)N)C(N)=O)NC1=O [ST-CY14] (H-CEGCKGF[S5]RRT[S5]RYYGRKKRRQRRR-NH2; staple 8-12)
CD36 and FABP4 protein expression (immunoblot) (MDA-MB-231 cells): inhibited the protein expression of CD36 and FABP4 | Nur77 protein expression (immunoblot) (MDA-MB-231 cells): increase in Nur77 expression | Interaction with mutated Nur77 (MST) [1]: disrupted the interaction | Body weight loss and signs of organ toxicity (MDA-MB-231-GFP xenograft; 5 and 10 mg kg^−1, tail vein, once every two days, thirty days, H&E of major organs): without significant body weight loss (Figure 6c) or other signs of organ toxicity | Nur77, CD36 and FABP4 protein levels in tumors (Western blot) (MDA-MB-231-GFP xenograft; MDA-MB-231-GFP tumors): effectively increased Nur77 protein levels, and decreased CD36 and FABP4 protein levels | Ki-67, H&E and TUNEL analysis of tumor sections (MDA-MB-231-GFP xenograft; compared with the control group, n = 3): reduced tumor cell proliferation, increased necrosis area and apoptosis
